Columns and labels:
Assay type in all cases: cell-based
Conditions in all cases: after 10, 20, 40 and 60 minutes at all dilutions 1:100, 1:200, 1:400, 1:800
Escherichia coli = experiment: Antimicrobial screening by agar dilution, E. Coli
Experimental: (§1) The antimicrobial properties of the 1-[4,5-bis(4-bromophenyl)-1-hexyl-1H-imidazol-2-yl]-2-naphthol was studied by the method of agar dilution. Test solutions of each compound was prepared in concentration of 1% using dimethylformamide as a solvent then they were diluted in physiological solution to obtain the final experimental dilutions 1:100, 1:200, 1:400, 1:800. The effect of these substances was compared with furacillin in a controlled study. The testing microbes used were gram positive bacteria Staphylococcus aureus, gram negative bacteria Pseudomonas aeruginosa and Escherichia coli and Candida albicans fungi were taken. The experiments used for this survey were meat-pentonlu agar (EPA) for cultivation of bacteria and Saburo environment for fungi. Each experiment used 1 ml of test solution on each plate 500 min. Add 2 drops of emulsified with microbes feel. All experimental samples were taken from the agar after 10, 20, 40, 60 minutes in the environment on the basis of Patrk planted. Bacteria were cultivated at a temperature of 37° C. for 1 day and the mushroom was kept in a thermostat for […] at a temperature of 28° C. Then results were checked.

Staphylococcus aureus = experiment: Antimicrobial screening by agar dilution, St. Aereus
Experimental: as §1

Pseudomonas aeruginosa = experiment: Antimicrobial screening by agar dilution, Ps. Aeroqonaza
Experimental: as §1

Candida albicans = experiment: Antimicrobial screening by agar dilution, Candida albicans
Experimental: as §1

Measured: inhibition activity

CCCCCCn1c(-c2c(O)ccc3ccccc23)nc(-c2ccc(Br)cc2)c1-c1ccc(Br)cc1 [1-[4,5-bis(4-bromophenyl)-1-hexyl-1H-imidazol-2-yl]-2-naphthol]
highest inhibition activity: all assays above

From patent publication US11958811B1, “1-[4,5-bis(4-bromophenyl)-1-hexyl-1H-imidazol-2-yl]-2-naphthol as an antimicrobial compound” (KING FAISAL UNIVERSITY, priority 2023, dated 2024)
